Broadly, the Ki is the equilibrium dissociation constant of an inhibitor or competing ligand from its target. As usually defined, the IC50 is the concentration that inhibits the measured activity by half. High values mean weaker potency, low ones greater potency. By inhibition is commonly meant the relative decrease from the control value, in per cent.

From ChEMBL document CHEMBL4138184 (J Nat Prod, 2017) come the findings set out here.

Assay [1] has as its target T1, Melatonin receptor type 1A (Homo sapiens, UniProt P48039).
The subject of assay [2] is MDA-MB-231. Nature of the assay: Antiproliferative activity against human MDA-MB-231 cells after 24 hrs by MTT assay. The assay is classed as functional, cell-based. As to conditions: MDA-MB-231, 24 h. (In general: Formazan colour is commonly taken as a measure of viable cells.)
Assay [3] deals with MDA-MB-231. The assay can be described thus: Antiproliferative activity against human MDA-MB-231 cells at 1 nM to 100 uM after 24 hrs by MTT assay relative to control. The assay is classed as functional. As to conditions: at 0.001 to 100 µM.
Assay [4] has as its system BT-549. Nature of the assay: Antiproliferative activity against human BT549 cells after 24 hrs by MTT assay. The assay is classed as functional, cell-based. As to conditions: BT-549, 24 h.
The test system of assay [5] is BT-549. The assay can be described thus: Antiproliferative activity against human BT549 cells at 1 nM to 100 uM after 24 hrs by MTT assay relative to control. The assay is classed as functional. As to conditions: at 0.001 to 100 µM.
A short description of assay [6]: Antiproliferative activity against mouse mammary carcinoma cell at 1 nM to 100 uM after 24 hrs by MTT assay relative to control. The format is functional. As to conditions: at 0.001 to 100 µM.
Assay [7] can be described thus: Antiproliferative activity against mouse mammary carcinoma cell after 24 hrs by MTT assay. The assay is classed as functional.
The subject of assay [8] is MCF7. The assay can be described thus: Antiproliferative activity against human MCF7 cells at 1 nM to 100 uM after 24 hrs by MTT assay relative to control. As to conditions: at 0.001 to 100 µM. The assay is classed as functional.
The test system of assay [9] is BT-549. The assay can be described thus: Inhibition of cell migration in human BT549 cells at 100 uM after 24 hrs by inverted fluorescence microscopy based scratch assay relative to control. The format is functional. As to conditions: BT-549, 24 h.
Assay [10] concerns MCF7. Nature of the assay: Inhibition of cell migration in human MCF7 cells at 100 uM after 24 hrs by inverted fluorescence microscopy based scratch assay relative to control. The format is functional. As to conditions: MCF7, 24 h.
The nature of assay [11]: Inhibition of cell migration in mouse mammary carcinoma cell at 100 uM after 24 hrs by inverted fluorescence microscopy based scratch assay relative to control. The format is functional.
In assay [12] the test system is MDA-MB-231. Nature of the assay: Inhibition of cell migration in human MDA-MB-231 cells at 100 uM after 24 hrs by inverted fluorescence microscopy based scratch assay relative to control. The assay is classed as functional. As to conditions: MDA-MB-231, 24 h.
The subject of assay [13] is MCF7. The assay can be described thus: Antiproliferative activity against human MCF7 cells after 24 hrs by MTT assay. The assay is classed as functional, cell-based. As to conditions: MCF7, 24 h.
Assay [14] concerns the target T1, Melatonin receptor type 1A. This is another data set of the same source.

Structures are written as SMILES.

T1 sequence (P48039 whole entry): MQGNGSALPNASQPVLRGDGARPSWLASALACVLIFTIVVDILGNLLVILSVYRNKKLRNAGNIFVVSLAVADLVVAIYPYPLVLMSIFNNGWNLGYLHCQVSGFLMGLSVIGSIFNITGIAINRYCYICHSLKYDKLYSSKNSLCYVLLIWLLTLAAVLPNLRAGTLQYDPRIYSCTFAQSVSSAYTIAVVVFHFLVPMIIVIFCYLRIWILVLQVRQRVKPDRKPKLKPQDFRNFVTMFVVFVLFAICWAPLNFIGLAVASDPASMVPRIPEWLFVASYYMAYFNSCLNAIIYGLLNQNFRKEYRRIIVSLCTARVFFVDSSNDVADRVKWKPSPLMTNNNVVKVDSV

`COc1cc(/C=C/C(=O)O)ccc1OC/C=C(\C)CCC=C(C)C` yielded a Ki in assay [1] of 59 µM. In addition, the results for the IC50 (with MDA-MB-231 [2]; with BT-549 [4]; in assay [7]) were 22 µM, 5.6 µM and 2.5 µM, respectively. The Efficacy stood at 79% with MDA-MB-231 [3], 93% in the assay on BT-549 [5], 99% in assay [6] and 102% with MCF7 [8].

Turning to `CC(C)=CCC/C(C)=C/COc1ccc2ccc(=O)oc2c1`, the inhibition at 100 µM in the assay on BT-549 [9] is 7%; in the assay with MCF7 [10], 3%; in assay [11], 5%; in the assay with MDA-MB-231 [12], -36%. Further, affinity in [1] was put at a Ki of 1.9 µM. The results for the 50% inhibitory concentration (IC50) with MDA-MB-231 [2] and with BT-549 [4] were 80 µM and 24 µM, respectively. In addition, the Efficacy stood at 67% in the assay with MDA-MB-231 [3], 86% in the assay on BT-549 [5], 57% in assay [6] and 90% in the assay with MCF7 [8].

The molecule `O=c1ccc2ccc(O/C=C/c3ccccc3)cc2o1` yielded an inhibitory constant (Ki) in assay [1] of 0.37 µM. In addition, the IC50 was determined as 6.6 µM in the assay on MDA-MB-231 [2], 140 µM with BT-549 [4] and 2.2 µM with MCF7 [13]. Besides, the Efficacy with MDA-MB-231 [3] came to 82%; in the assay with BT-549 [5], 86%; in [6], 93%; with MCF7 [8], 87%.

Molecule `CCC#CCOc1ccc2ccc(=O)oc2c1` [7-(2-PENTYNYLOXY)COUMARIN] came in with a Ki in assay [1] of 0.888 µM. For the same molecule, the Efficacy was 87% in the assay on MDA-MB-231 [3], 86% in the assay with BT-549 [5], 101% in [6] and 89% in the assay with MCF7 [8]. The IC50 in the assay on BT-549 [4] amounted to 74 µM; with MCF7 [13], 50 µM; in [7] it was 24 µM.

`CC(C)=CCOc1ccc2ccc(=O)oc2c1` [7-PRENYLOXYCOUMARIN]: the affinity in [1] corresponds to a Ki of 5.2 µM. Also, the Efficacy with MDA-MB-231 [3] was determined as 83%; in the assay on BT-549 [5], 94%; in assay [6], 98%; in the assay with MCF7 [8], 105%. The IC50 with BT-549 [4] worked out at 37 µM.

The molecule `COc1cc(/C=C/C=O)ccc1OCC=C(C)C` [BOROPINAL] returned a Ki in assay [1] of 0.786 µM. In addition, the values for the IC50 (in the assay with MDA-MB-231 [2]; with BT-549 [4]; in assay [7]) were 63 µM, 0.045 µM and 0.22 µM, respectively. The Efficacy in the assay with MDA-MB-231 [3] was 79%; in the assay on BT-549 [5], 83%; in [6] it was 96%; in the assay with MCF7 [8] it was 94%.

Turning to `COc1cc(/C=C/C(=O)O)ccc1OCC=C(C)C` [BOROPINIC ACID], the Efficacy in the assay with MDA-MB-231 [3] came to 89%; with BT-549 [5] it was 97%; in assay [6], 98%; in the assay on MCF7 [8], 102%. For the same molecule, the results for the IC50 (with BT-549 [4]; with MCF7 [13]; in assay [7]) were 15 µM, 0.7 µM and 6.1 µM, respectively.

Consider `COc1cc(/C=C/C(=O)O)ccc1O` [FERULATE], for which the IC50 amounted to 0.5 µM in the assay on MDA-MB-231 [2] and 1.2 µM in the assay with BT-549 [4]. Also, the Efficacy in the assay with MDA-MB-231 [3] was determined as 92%; in the assay with BT-549 [5], 99%; in [6], 100%; with MCF7 [8], 96%.

In the case of `COc1ccc2[nH]cc(CCNC(C)=O)c2c1` [MELATONIN], the IC50 in the assay with MDA-MB-231 [2] amounted to 0.9 µM; with BT-549 [4] it was 30000 µM; in assay [7], 0.2 µM. Further, the Efficacy in the assay on MDA-MB-231 [3] came out at 92%; in the assay with BT-549 [5] it was 91%; in assay [6], 91%; with MCF7 [8], 87%.

For the molecule `O=c1ccc2ccc(O)cc2o1` [UMBELLIFERONE], the IC50 in the assay with MDA-MB-231 [2] came to 3.7 µM; in the assay with BT-549 [4], 1000 µM; with MCF7 [13], 2.9 µM. Further, the Efficacy turned out to be 88% in the assay with MDA-MB-231 [3], 91% in the assay on BT-549 [5], 93% in assay [6] and 124% in the assay on MCF7 [8].

Turning to `CC(C)=CCC/C(C)=C/CC/C(C)=C/COc1ccc2ccc(=O)oc2c1` [UMBELLIPRENIN], the inhibition at 100 µM in the assay with BT-549 [9] was 23%; in the assay on MCF7 [10] it was 9%; in [11], 7%; in the assay on MDA-MB-231 [12], -52%. The KiH in [14] was 1.6 nM. The molecule further returned a KiL in assay [14] of 3.3 nM. Besides, the IC50 in the assay with MDA-MB-231 [2] was 30 µM. For the same molecule, the Efficacy with MDA-MB-231 [3] is recorded as 60%; with BT-549 [5] it was 85%; in assay [6] it was 61%; with MCF7 [8], 81%.
